Experimental data: patent US20240246918A1, “COMPOUNDS AND COMPOSITIONS AS EIF4E INHIBITORS AND THE USES THEREOF” (Ribometrix, Inc., priority 2022, published 2024)

How the values were obtained:
[1] = tested on: COLO 205 colorectal tumor cells; test: Tumor cell viability inhibition assay (CellTiter-Glo 2.0, 72 hours); format: cell-based; conditions: COLO 205 cell viability
Outline: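 COLO 205 cells (1500/well, RPMI-1640 + 10% FBS) exposed for 72 h to an 11-point, 4-fold dilution series; cellular ATP read by CellTiter-Glo 2.0 luminescence. Data normalized to DMSO and maximum-inhibition controls; IC50 from 4-parameter curve fit.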

[2] = biological target: T1, human eIF4E protein (Homo sapiens, UniProt P06730); test: Biochemical competitive binding assay (TR-FRET competition, EDA-m7GDP-ATTO-647N probe); conditions: read-out: hEIF4E TR-FRET IC50
T1 construct: purchased Novus NBP-45314
T1 sequence (P06730 whole entry): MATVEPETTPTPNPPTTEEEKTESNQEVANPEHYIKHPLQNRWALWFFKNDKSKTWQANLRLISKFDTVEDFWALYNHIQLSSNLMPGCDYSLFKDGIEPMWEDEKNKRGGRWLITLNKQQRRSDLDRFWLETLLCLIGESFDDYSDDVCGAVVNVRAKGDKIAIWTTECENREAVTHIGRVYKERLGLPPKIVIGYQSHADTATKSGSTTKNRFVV
Outline: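 His-tagged human eIF4E (4 nM) was preincubated with Eu-anti-His antibody (2.5 nM) and added to compound (11-point, 4-fold dilutions) for 15 min. Then 5 nM EDA-m7GDP-ATTO-647N was added for 15 min, in HEPES pH 7.5, 100 mM KCl. The 665/620 TR-FRET ratio was normalized to controls, and IC50 was taken from 4-parameter fits.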

SMILES | IC50 ([1]; Homo sapiens, COLO 205, 72 h) | IC50 [2] | IC50 [1]
Cc1cc(-c2cc(Cl)ccc2OCCn2c(C)nc3c(c2=O)C[C@@H](N2CCC(c4cc(F)ccc4C(F)(F)F)CC2)CC3)c2scc(C(=O)O)c2n1 (single isomer, unassigned) [Compound 586] | < 5 µM | < 100 nM | 
Cc1cc(-c2cc(Cl)ccc2OCCn2c(C)nc3c(c2=O)C[C@H](N2CCCC[C@H]2c2cccc(C(F)(F)F)c2)CC3)c2scc(C(=O)O)c2n1 (single isomer, unassigned) [Compound 587] | < 5 µM | < 100 nM | 
Cc1cc(-c2cc(Cl)ccc2OCCn2c(C)nc3c(c2=O)C[C@@H](N2CCCC[C@@H]2c2cccc(C(F)(F)F)c2)CC3)c2scc(C(=O)O)c2n1 (single isomer, unassigned) [Compound 588] | 5 to 20 µM | 100 to 500 nM | 
Cc1cc(-c2cc(Cl)ccc2OCCn2c(C)nc3c(c2=O)C[C@@H](N2CCCC[C@H]2c2cccc(C(F)(F)F)c2)CC3)c2scc(C(=O)O)c2n1 (single isomer, unassigned) [Compound 589] | > 20 µM | 100 to 500 nM | 
Cc1cc(-c2cc(Cl)ccc2OCCn2c(C)nc3c(c2=O)C[C@H](N2CCCC[C@@H]2c2cccc(C(F)(F)F)c2)CC3)c2scc(C(=O)O)c2n1 (single isomer, unassigned) [Compound 590] | > 20 µM | 500 to 5000 nM | 
Cc1cc(-c2cc(Cl)ccc2OCCn2c(C)nc3c(c2=O)C[C@@H](N2CCC4(CC2)CC4(F)F)CC32CC2)c2scc(C(=O)O)c2n1 (single isomer, unassigned) [Compound 591] | < 5 µM | < 100 nM | 
Cc1nc2c(c(=O)n1CC#Cc1ccc(Cl)cc1-c1ccnc3c(C(=O)NS(C)(=O)=O)csc13)CC(N1CCC(OC(F)(F)F)CC1)CC2 (single isomer, unassigned) [Compound 592] | < 5 µM | < 100 nM | 
Cc1cc(-c2cc(Cl)ccc2OCCn2c(C)nc3c(c2=O)C[C@H](N2CCC(c4nc5ccc(F)cc5s4)CC2)CC3)c2scc(C(=O)O)c2n1 (single isomer, unassigned) [Compound 593] | < 5 µM | < 100 nM | 
Cc1cc(-c2cc(Cl)ccc2OCCn2c(C)nc3c(c2=O)C[C@@H](N2CCC(c4nc5ccc(F)cc5s4)CC2)CC3)c2scc(C(=O)O)c2n1 (single isomer, unassigned) [Compound 594] | < 5 µM | < 100 nM | 
Cc1cc(-c2cc(Cl)ccc2OCCn2c(C)nc3c(c2=O)C[C@H](N2CCC(Oc4ccc(F)cc4F)CC2)CC3)c2scc(C(=O)O)c2n1 (single isomer, unassigned) [Compound 595] | < 5 µM | < 100 nM | 
Cc1cc(-c2cc(Cl)ccc2OCCn2c(C)nc3c(c2=O)C[C@@H](N2CCC(Oc4ccc(F)cc4F)CC2)CC3)c2scc(C(=O)O)c2n1 (single isomer, unassigned) [Compound 596] | < 5 µM | < 100 nM | 
Cc1cc(-c2cc(Cl)ccc2OCCn2c(C)nc3c(c2=O)C[C@H](N2CCC(OC(F)(F)F)CC2)[C@@H]2C[C@H]32)c2scc(C(=O)O)c2n1 (single isomer, unassigned) [Compound 597] | < 5 µM | < 100 nM | 
Cc1cc(-c2cc(Cl)ccc2OCCn2c(C)nc3c(c2=O)C[C@@H](N2CCC(OC(F)(F)F)CC2)[C@H]2C[C@@H]32)c2scc(C(=O)O)c2n1 (single isomer, unassigned) [Compound 598] | < 5 µM | < 100 nM | 
Cc1cc(-c2cc(Cl)ccc2OCCn2c(C)nc3c(c2=O)CC(C)(N(C)CC2CC(F)(F)C2)CC3)c2scc(C(=O)O)c2n1 (single isomer, unassigned) [Compound 599] | 5 to 20 µM | < 100 nM | 
Cc1cc(-c2cc(Cl)ccc2OCCn2c(C)nc3c(c2=O)CC(C)(N(C)CC2CC(F)(F)C2)CC3)c2scc(C(=O)O)c2n1 (single isomer, unassigned) [Compound 600] |  | < 100 nM | < 5 µM
Cc1nc2c(c(=O)n1CC#Cc1ccc(Cl)cc1-c1ccnc3c(C(=O)NS(C)(=O)=O)csc13)CC(N1CCC(OC(F)(F)F)CC1)CC2 (single isomer, unassigned) [Compound 601] |  | < 100 nM | < 5 µM
Cc1cc(-c2cc(Cl)ccc2OCCn2c(C)nc3c(c2=O)C[C@H](N2CCC(C(F)(F)F)CC2)CC32CC2)c2scc(C(=O)O)c2n1 (single isomer, unassigned) [Compound 602] | < 5 µM | < 100 nM | 
Cc1cc(-c2cc(Cl)ccc2OCCn2c(C)nc3c(c2=O)C[C@@H](N2CCC(C(F)(F)F)CC2)CC32CC2)c2scc(C(=O)O)c2n1 (single isomer, unassigned) [Compound 603] | < 5 µM | < 100 nM | 
Cc1cc(-c2cc(Cl)ccc2OCCn2c(C)nc3c(c2=O)C[C@H](N2C[C@@H]4CC[C@H]2CC4OC(F)(F)F)CC32CC2)c2scc(C(=O)O)c2n1 (single isomer, unassigned) [Compound 604] | < 5 µM | < 100 nM | 

SMILES | IC50 ([1]; Homo sapiens, COLO 205, 72 h) | IC50 [2] | IC50 [1]
Cc1cc(-c2cc(Cl)ccc2OCCn2c(C)nc3c(c2=O)C[C@@H](N2C[C@@H]4CC[C@H]2CC4OC(F)(F)F)CC32CC2)c2scc(C(=O)O)c2n1 (single isomer, unassigned) [Compound 605] | < 5 µM | < 100 nM | 
Cc1cc(-c2cc(Cl)ccc2OCCn2c(C)nc3c(c2=O)C[C@H](N2C[C@H]4CC[C@@H]2CC4OC(F)(F)F)CC32CC2)c2scc(C(=O)O)c2n1 (single isomer, unassigned) [Compound 606] | < 5 µM | < 100 nM | 
Cc1cc(-c2cc(Cl)ccc2OCCn2c(C)nc3c(c2=O)C[C@@H](N2C[C@H]4CC[C@@H]2CC4OC(F)(F)F)CC32CC2)c2scc(C(=O)O)c2n1 (single isomer, unassigned) [Compound 607] | < 5 µM | < 100 nM | 
Cc1cc(-c2cc(Cl)ccc2C#CCn2c(C)nc3c(c2=O)CC(C)(N2CCCC4(C2)CC4(F)F)CC3)c2scc(C(=O)O)c2n1 (single isomer, unassigned) [Compound 608] |  | < 100 nM | < 5 µM
Cc1cc(-c2cc(Cl)ccc2OCCn2c(C)nc3c(c2=O)C[C@@H](N2CCC[C@@H](C(F)F)C2)CC32CC2)c2scc(C(=O)O)c2n1 (single isomer, unassigned) [Compound 609] | < 5 µM | < 100 nM | 
Cc1cc(-c2cc(Cl)ccc2OCCn2c(C)nc3c(c2=O)C[C@@H](N2CCC[C@H](C(F)F)C2)CC32CC2)c2scc(C(=O)O)c2n1 (single isomer, unassigned) [Compound 610] | < 5 µM | < 100 nM | 
Cc1cc(-c2cc(Cl)ccc2OCCn2c(C)nc3c(c2=O)C[C@H](N2CCC(Oc4ccc(F)cc4F)CC2)CC32CC2)c2scc(C(=O)O)c2n1 (single isomer, unassigned) [Compound 611] | < 5 µM | < 100 nM | 
Cc1cc(-c2cc(Cl)ccc2C#CCn2c(C)nc3c(c2=O)CC(C)(N2CCCC4(C2)CC4(F)F)CC3)c2scc(C(=O)O)c2n1 (single isomer, unassigned) [Compound 612] |  | 100 to 500 nM | 5 to 20 µM
Cc1cc(-c2cc(Cl)ccc2OCCn2c(C)nc3c(c2=O)C[C@@H](N2CCC(Oc4ccc(F)cc4F)CC2)CC32CC2)c2scc(C(=O)O)c2n1 (single isomer, unassigned) [Compound 613] | < 5 µM | < 100 nM | 
Cc1cc(-c2cc(Cl)ccc2C#CCn2c(C)nc3c(c2=O)CC(C)(N2CCCC4(C2)CC4(F)F)CC3)c2scc(C(=O)O)c2n1 (single isomer, unassigned) [Compound 614] |  | < 100 nM | < 5 µM
Cc1cc(-c2cc(Cl)ccc2C#CCn2c(C)nc3c(c2=O)CC(C)(N2CCCC4(C2)CC4(F)F)CC3)c2scc(C(=O)O)c2n1 (single isomer, unassigned) [Compound 615] |  | 100 to 500 nM | > 20 µM
Cc1cc(-c2cc(Cl)ccc2OCCn2c(C)nc3c(c2=O)C[C@H](N2CCC[C@@H](C(F)F)C2)CC32CC2)c2scc(C(=O)O)c2n1 (single isomer, unassigned) [Compound 616] | < 5 µM | < 100 nM | 
Cc1cc(-c2cc(Cl)ccc2OCCn2c(C)nc3c(c2=O)C[C@H](N2CCC[C@H](C(F)F)C2)CC32CC2)c2scc(C(=O)O)c2n1 (single isomer, unassigned) [Compound 617] | < 5 µM | < 100 nM | 
Cc1cc(-c2cc(Cl)ccc2OCCn2c(C)nc3c(c2=O)C[C@H](N2C[C@@H]4CC(F)(F)C[C@@H]4C2)CC32CC2)c2scc(C(=O)O)c2n1 (single isomer, unassigned) [Compound 618] | < 5 µM | < 100 nM | 
Cc1cc(-c2cc(Cl)ccc2OCCn2c(C)nc3c(c2=O)C[C@@H](N2C[C@@H]4CC(F)(F)C[C@@H]4C2)CC32CC2)c2scc(C(=O)O)c2n1 (single isomer, unassigned) [Compound 619] | < 5 µM | < 100 nM | 
Cc1cc(-c2cc(Cl)ccc2OCCn2c(C)nc3c(c2=O)CC(CN(C)C)(N2CCC(OC(F)(F)F)CC2)CC3)c2scc(C(=O)O)c2n1 (single isomer, unassigned) [Compound 620] |  | < 100 nM | < 5 µM
Cc1cc(-c2cc(Cl)ccc2OCCn2c(C)nc3c(c2=O)CC(CN(C)C)(N2CCC(OC(F)(F)F)CC2)CC3)c2scc(C(=O)O)c2n1 (single isomer, unassigned) [Compound 621] |  | 100 to 500 nM | > 20 µM
Cc1cc(-c2cc(Cl)ccc2OCCn2c(C)nc3c(c2=O)CC(CN)(N2CCC(OC(F)(F)F)CC2)CC3)c2scc(C(=O)O)c2n1 (single isomer, unassigned) [Compound 622] | > 20 µM | < 100 nM | 
